A short description of test [1]: Radical scavenging of DPPH. The settings on record: DPPH 200 μM, 30 min incubation. The procedure: Compounds, dissolved in absolute methanol, at concentrations of 25–400 μM, were added to an equal volume of a methanolic solution of DPPH (final concentration 200 μM) at room temperature (22 ± 2 °C).
Background: The DPPH test is a chemical assay of radical scavenging.

Test [2] relates to carrageenan-induced mouse paw edema. Briefly: Carrageenan-induced mouse paw edema. The settings on record: ip, 3.5 h, i.p. 0.30 mmol/kg, female C57BL/6, 3.5 h after carrageenan, read-out: % Edema (decrease of carrageenan-induced paw edema vs control). It counts as in vivo, C57BL/6 mice. On the procedure:
For the in vivo anti-inflammatory activity, C57BL/6 mice were injected with 0.025 mL carrageenan (2% w/v solution in saline) i.d. into the right hind paw, the left paw serving as control. The test compounds dissolved in saline (300 μmol/kg) were given i.p. right after the carrageenan injection, and 3.5 h later the produced edema was estimated as paw weight increase. Results are expressed as percentage of reduction in paw-edema and are the mean of 6 animals (per compound).
(In general: The carrageenan paw model is a standard test of acute inflammation.)

Test [3] addresses T1, acetylcholinesterase from eel (Electrophorus electricus, UniProt O42275).
T1 construct: purchased Sigma
Briefly: Acetylcholinesterase (AChE) inhibition (Ellman). The settings on record: read-out: AChE Inhibition (%), 300 μM compound. It counts as biochemical. The procedure:
(0.31 mM) in phosphate buffer with pH = 7. The incubation mixture is monitored for 7 min at 37 °C.
Background: DTNB colorimetry detects thiols as they appear.

The subject of a further test is hyperlipidaemic mice. Briefly: Tyloxapol (Triton WR 1339)-induced hyperlipidemia, plasma lipid parameters. It counts as in vivo. The conditions noted are these: i.p. 84 μmol/kg; for change in vivo at 84 µmol/kg / inhibition in vivo at 84 µmol/kg: Mus musculus, ip, 24 h. On the procedure:
An aqueous solution of Triton WR 1339 was given i.p. to mice (400 mg/kg of body weight) and one hour later the test compounds (84 μmol/kg of body weight), dissolved in saline or saline only, were administered i.p. After 24 h, blood was taken from the aorta/heart and used for the determination of plasma total cholesterol (TC), triglyceride (TG) levels, and high-density lipoprotein (HDL) levels, using commercially available kits (Biosis Cholesterol Enzymatic/PAP, Biosis Triglycerides GPO/PAP, and Biosis HDL Phosphovolframic, Biosis, Athens Greece). Levels of plasma lipids were determined in duplicate while values presented are the mean from 8 animals (per compound). The levels of low-density lipoprotein (LDL) are calculated according to the equation: LDL (mg/dL) = 3/4 * (TC-HDL).

Test [4] relates to mouse liver microsomal lipid peroxidation. Briefly: Inhibition of mouse liver microsomal lipid peroxidation (LP). The conditions noted are these: for IC50: read-out: LP IC50 Value, 45 min incubation; for LP % Inhibition at 100 μΜ: 100 μM compound.
A short description of test [5]: Iron chelation (ferrozine assay). The settings on record: for % of Fe(II) Chelation (at 100 μM): 100 μM compound, Fe2+ 20 μM. On the procedure:
[…] The reaction was initiated with the addition of a 100 μM aqueous ferrozine solution, which chelates iron ions, resulting in an increased maximum absorbance at 562 nm. After incubation at 37 °C for 10 min, the mixture’s absorbance is measured at 562/700 nm. Each value is expressed as the mean of 3 tests per sample [46].

Test [6] deals with soybean lipoxygenase (LOX-3). Briefly: Soybean lipoxygenase (LOX-3) inhibition. Format: biochemical. The conditions noted are these: after 5 min of incubation; sodium linoleate 100 μM, pH 9.0. On the procedure:
Lipoxygenase (LOX) inhibitory activity was determined using soybean lipoxygenase (250 U/mL) and sodium linoleate (100 μM) as substrate, in Tris–HCl buffer pH 9.0.

Test [7] concerns plasma of hyperlipidaemic mice. Briefly: Total antioxidant capacity (TAC) of plasma in hyperlipidaemic mice. It counts as in vivo. The conditions noted are these: Mus musculus, ip, 24 h, i.p. 84 μmol/kg, read-out: Total Antioxidant Capacity (TAC) Increase (%).
Setting [8] is: plasma, vs tyloxapol control, read-out: % HDL Increase.
Where [9] appears, read: LDL calculated as 3/4*(TC-HDL), read-out: % LDL Decrease.
Setting [10] is: plasma, vs tyloxapol control, read-out: % Total Cholesterol (TC) Reduction.
Where [11] appears, read: plasma, vs tyloxapol control, read-out: % Triglycerides (TG) Reduction.
Where [12] appears, read: ratio calculated, read-out: % HDL/LDL Increase (antiatherogenic index).

We go through 16 compounds from publication PMC12693416, “From Lipid Regulation to Neuroprotection: Multitarget (Benzo)thiazine Derivatives as Promising Leads” (Molecules, 2025).

Where two headings read alike, the source gives them in different places.

T1 sequence (O42275 24-633): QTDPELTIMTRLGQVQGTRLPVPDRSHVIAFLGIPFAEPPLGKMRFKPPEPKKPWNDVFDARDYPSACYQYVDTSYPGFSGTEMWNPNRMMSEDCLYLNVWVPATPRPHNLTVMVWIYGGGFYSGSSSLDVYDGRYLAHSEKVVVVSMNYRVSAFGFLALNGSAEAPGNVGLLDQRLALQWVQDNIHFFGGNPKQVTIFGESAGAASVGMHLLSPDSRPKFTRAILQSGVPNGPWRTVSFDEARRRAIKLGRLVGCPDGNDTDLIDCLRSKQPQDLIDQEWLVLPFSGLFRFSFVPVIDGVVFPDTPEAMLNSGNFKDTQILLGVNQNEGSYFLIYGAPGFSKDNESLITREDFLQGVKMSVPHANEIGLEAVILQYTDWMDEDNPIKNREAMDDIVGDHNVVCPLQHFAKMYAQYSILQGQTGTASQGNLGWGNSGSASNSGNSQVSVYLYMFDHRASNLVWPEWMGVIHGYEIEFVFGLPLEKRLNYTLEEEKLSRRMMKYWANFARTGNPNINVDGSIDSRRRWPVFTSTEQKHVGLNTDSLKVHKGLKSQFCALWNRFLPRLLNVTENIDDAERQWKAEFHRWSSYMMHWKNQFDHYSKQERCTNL

In general, IC50 refers to the midpoint of a concentration-inhibition curve. One may read the inhibition as the percentage by which the read-out fell short of the control. Take `COc1cc(C(=O)N2CC(c3ccc(-c4ccccc4)cc3)Sc3ccccc32)cc(OC)c1OC` (stereo not drawn) [Compound 14, (2-([1,1′-Biphenyl]-4-yl)-2,3-dihydro-4H-benzo[b][1,4]thiazin-4-yl)(3,4,5-trimethoxyphenyl)methanone]: the IC50 is greater than 400 µM in test [1], greater than 1000 µM in test [4] and 71 µM in test [6]. The inhibition in vivo at 300 µmol/kg in test [2] worked out at 38%. For the same compound, the inhibition at 300 µM in test [3] was roughly 45%. The change in vivo at 84 µmol/kg in the test with hyperlipidaemic mice (setting [8]) was found to be 13%; in test [7], 144%. The inhibition in vivo at 84 µmol/kg with hyperlipidaemic mice (setting [9]) is 73%; in the test with hyperlipidaemic mice (setting [10]) it was 51%; with hyperlipidaemic mice (setting [11]), 50%. The “% of Fe(II) Chelation (at 100 μM)” value in test [5] is recorded as 6%.
Take `CC(C)(C)c1cc(C(=O)N2CCSC(c3ccc(-c4ccccc4)cc3)C2)cc(C(C)(C)C)c1O` (stereo not drawn) [Compound 5, (2-([1,1′-Biphenyl]-4-yl)thiomorpholino)(3,5-ditertbutyl-4-hydroxyphenyl)methanone]: the IC50 in test [1] came out at 300 µM; in test [4], 250 µM; in test [6], 150 µM. The inhibition in vivo at 300 µmol/kg in test [2] is 35%. For the same compound, in test [3], the inhibition at 300 µM is 24%. The inhibition in vivo at 84 µmol/kg worked out at 55% in the test on hyperlipidaemic mice (setting [10]) and 50% in the test on hyperlipidaemic mice (setting [11]). Moreover, the “% of Fe(II) Chelation (at 100 μM)” value in test [5] amounted to 0%. In addition, in test [7], the change in vivo at 84 µmol/kg stood at 0%.
`COc1ccc2cc([C@H](C)C(=O)O)ccc2c1` [naproxen, reference compound] gave an IC50 in test [6] of 25 µM.
Regarding `CC(C)Cc1ccc(C(C)C(=O)N2CCSC(c3ccc(-c4ccccc4)cc3)C2)cc1` (stereo not drawn) [Compound 7, 1-(2-([1,1′-Biphenyl]-4-yl)thiomorpholino)-2-(4-isobutylphenyl)propan-1-one], the IC50 in test [1] is greater than 400 µM; in test [4], 299 µM; in test [6], 22 µM. Further, the inhibition in vivo at 300 µmol/kg in test [2] worked out at 27%. Also, in test [3], the inhibition at 300 µM came to 27%. The inhibition in vivo at 84 µmol/kg in the test with hyperlipidaemic mice (setting [10]) amounted to 27%; in the test on hyperlipidaemic mice (setting [11]) it was 70%. The “% of Fe(II) Chelation (at 100 μM)” value in test [5] turned out to be 3%. In addition, the change in vivo at 84 µmol/kg in test [7] worked out at 0%.
As to `O=C(O)/C=C/c1ccccc1` [cinnamic acid, reference compound], the IC50 in test [6] is greater than 300 µM.
Consider `CC(C)(C)c1cc(/C=C/C(=O)N2CC(c3ccc(-c4ccccc4)cc3)Sc3ccccc32)cc(C(C)(C)C)c1O` (stereo not drawn) [Compound 16, (E)-1-(2-([1,1′-Biphenyl]-4-yl)-2,3-dihydro-4H-benzo[b][1,4]thiazin-4-yl)-3-(3,5-ditertbutyl-4-hydroxyphenyl)prop-2-en-1-one], for which the 50% inhibitory concentration (IC50) in test [1] was 141 µM; in test [4], greater than 1000 µM; in test [6], 58 µM. In addition, the inhibition in vivo at 300 µmol/kg in test [2] is 45%. Besides, the inhibition at 300 µM in test [3] was found to be 24%. For the same compound, the change in vivo at 84 µmol/kg in the test with hyperlipidaemic mice (setting [8]) amounted to 131%. In addition, the inhibition in vivo at 84 µmol/kg with hyperlipidaemic mice (setting [9]) was 66%; in the test on hyperlipidaemic mice (setting [10]), 45%; in the test with hyperlipidaemic mice (setting [11]) it was 67%. In addition, in test [5], the “% of Fe(II) Chelation (at 100 μM)” value is recorded as 9%.
As to `Cc1c(C)c2c(c(C)c1O)CCC(C)(C(=O)N1CCSC(c3ccc(-c4ccccc4)cc3)C1)O2` (stereo not drawn) [Compound 10], the values for the IC50 in test [1], in test [4] and in test [6] were 78 µM, 4 µM and 140 µM, respectively. Further, the inhibition in vivo at 300 µmol/kg in test [2] was 43%. The inhibition at 300 µM in test [3] is roughly 45%. The change in vivo at 84 µmol/kg was 32% with hyperlipidaemic mice (setting [8]) and 77% with hyperlipidaemic mice (setting [12]). Moreover, the inhibition in vivo at 84 µmol/kg with hyperlipidaemic mice (setting [9]) is 23%; in the test with hyperlipidaemic mice (setting [10]), 13%; in the test on hyperlipidaemic mice (setting [11]) it was 52%. Moreover, in test [5], the “% of Fe(II) Chelation (at 100 μM)” value turned out to be 0%.
In the case of `COc1cc(/C=C/C(=O)N2CCSC(c3ccc(-c4ccccc4)cc3)C2)ccc1O` (stereo not drawn) [Compound 1, (E)-1-(2-([1,1′-Biphenyl]-4-yl)thiomorpholino)-3-(4-hydroxy-3-methoxyphenyl)prop-2-en-1-one], the results for the IC50 in test [1], in test [4] and in test [6] were 166 µM, 6 µM and 68 µM, respectively. Also, the inhibition in vivo at 300 µmol/kg in test [2] is no more than 60%. The inhibition at 300 µM in test [3] was 22%. For the same compound, the change in vivo at 84 µmol/kg in the test with hyperlipidaemic mice (setting [8]) was determined as 84%. For the same compound, the inhibition in vivo at 84 µmol/kg with hyperlipidaemic mice (setting [9]) is 59%; with hyperlipidaemic mice (setting [10]), 40%; in the test on hyperlipidaemic mice (setting [11]) it was 83%. Further, the “% of Fe(II) Chelation (at 100 μM)” value in test [5] is 19%.
`O=C(O)c1cc(O)c(O)c(O)c1` [gallic acid, reference compound] yielded an IC50 in test [1] of 14 µM. Moreover, the “LP % Inhibition at 100 μΜ” value in test [4] was 73%. The “% of Fe(II) Chelation (at 100 μM)” value in test [5] was 98%.
As to `O=C(c1cc(O)c(O)c(O)c1)N1CCSC(c2ccc(-c3ccccc3)cc2)C1` (stereo not drawn) [Compound 3, (2-([1,1′-Biphenyl]-4-yl)thiomorpholino)(3,4,5-trihydroxyphenyl)methanone], the IC50 in test [1] was found to be 31 µM; in test [4] it was 8 µM; in test [6], 4 µM. Moreover, the inhibition in vivo at 300 µmol/kg in test [2] was no more than 60%. The inhibition at 300 µM in test [3] turned out to be 10%. Further, the change in vivo at 84 µmol/kg in the test on hyperlipidaemic mice (setting [8]) stood at 49%. Also, the inhibition in vivo at 84 µmol/kg with hyperlipidaemic mice (setting [9]) was 79%; with hyperlipidaemic mice (setting [10]), 51%; in the test on hyperlipidaemic mice (setting [11]), 86%. In addition, the “% of Fe(II) Chelation at 10 μM” value in test [5] (10 μM compound) is on record as 56%. Also, in test [5], the “% of Fe(II) Chelation (at 100 μM)” value came to 89%.
Regarding `CC(C)Cc1ccc(C(C)C(=O)O)cc1` (stereo not drawn) [ibuprofen, reference compound], the IC50 in test [6] is greater than 300 µM.
In the case of `O=C1O[C@H]([C@@H](O)CO)C(O)=C1O` [ascorbic acid, reference compound], the IC50 in test [1] came out at 42 µM.
In test [1], `CC(C)(C)c1cc(/C=C/C(=O)O)cc(C(C)(C)C)c1O` [acrylic derivative, (E)-3-(3,5-ditertbutyl-4-hydroxyphenyl)acrylic acid, reference compound] registered an IC50 of 77 µM.
In the case of `CC(C)(C)c1cc(/C=C/C(=O)N2CCSC(c3ccc(-c4ccccc4)cc3)C2)cc(C(C)(C)C)c1O` (stereo not drawn) [Compound 6, (E)-1-(2-([1.1′-Biphenyl]-4-yl)thiomorpholino)-3-(3,5-ditertbutyl-4-hydroxyphenyl)prop-2-en-1-one], the IC50 in test [1] was 288 µM; in test [4] it was greater than 500 µM; in test [6] it was 252 µM. The inhibition in vivo at 300 µmol/kg in test [2] was determined as 33%. Also, the inhibition at 300 µM in test [3] is roughly 45%. In the test on hyperlipidaemic mice (setting [12]), the change in vivo at 84 µmol/kg was 43%. The results for the inhibition in vivo at 84 µmol/kg in the test with hyperlipidaemic mice (setting [9]), with hyperlipidaemic mice (setting [10]) and in the test on hyperlipidaemic mice (setting [11]) were 49%, 36% and 65%, respectively. Moreover, in the test with hyperlipidaemic mice (plasma, HDL decrease, not increase), the “% HDL, value marked footnote 2: decrease percentage” value is 23 **^,2%. In addition, in test [5], the “% of Fe(II) Chelation (at 100 μM)” value stood at 0%.
In test [1], `Cc1cc(C(C)(C)C)c(O)c(C(C)(C)C)c1` [BHT, butylated hydroxytoluene, reference compound] yielded an IC50 of 31 µM. In test [4], the “LP % Inhibition at 100 μΜ” value amounted to 0%. Moreover, the “% of Fe(II) Chelation (at 100 μM)” value in test [5] is listed as 0%.
`Cc1c(C)c2c(c(C)c1O)CCC(C)(C(=O)O)O2` (stereo not drawn) [Trolox, 6-hydroxy-2,5,7,8-tetramethylchroman-2-carboxylic acid, reference compound] gave an IC50 in test [1] of 33 µM. The “LP % Inhibition at 100 μΜ” value in test [4] came out at 43%. For the same compound, the “% of Fe(II) Chelation (at 100 μM)” value in test [5] stood at 29%.
